Tests used:
[1] = system: human fibroblasts (HDF, Human Dermal Fibroblast); experiment: MTT cytotoxicity assessment; assay type: cell-based; conditions: 24 hours and 48 hours, FIG. 1
Experimental: (§1) Using the MTT (3-(4,5-dimethylthiazol-2yl)-2,5-diphenyl-2H-tetrazolium bromide) assay was applied to investigate the effect of TMF (BCT) and catechol (BCC) on cell proliferation. 5×10^3 cells/well were placed in a 96-well plate and incubated for 24 hours at 37° C., 5% CO2 incubator. Then, each sample was treated in each well according to the concentration and then incubated for 24 hours. Then, after washing with PBS, 20 μL of MTT dissolved in PBS and 200 μL of FBS-free DMEM were treated in each well and then incubated for 4 hours under the same conditions after blocking the light. After 4 hours, the culture solution was removed, treated with 200 μL of DMSO (dimethyl sulfoxide), and left at 37° C. for 2 hours, and absorbance was measured at 570 nm using a microplate reader.
(§2) The cell viability after 24 hours and 48 hours is shown in FIG. 1 as a percentage compared to the control group, the untreated sample group.

[2] = system: human lung fetal cells (MRC-5); experiment: MTT cytotoxicity assessment; assay type: cell-based; conditions: 24 hours and 48 hours, FIG. 1
Experimental: as §1, §2

muscle cells (C2C12) = experiment: MTT cytotoxicity assessment; assay type: cell-based; conditions: 24 hours and 48 hours, FIG. 1
Experimental: as §1, §2

[3] = system: alveolar epithelial A549 cells; experiment: Cell migration inhibition (scratch), EMT induced by TGF-β1; assay type: cell-based; conditions: TGF-β1-treated A549; BCT 10 μM, BCC 0.5 μM; 72 hours; FIG. 2
Experimental: As EMT progresses, the proliferation and movement of epithelial cells increases, cell penetration increases, and cell morphology changes, thereby confirming EMT inhibitory efficacy and evaluating the degree of expression of mechanism-related factors. A549 cells were seeded at 1×10^5 cells in 1 mL per well in a 6-well plate and cultured at 37° C. under 5% CO 2 for 24 hours. After 24 hours, a single cell layer was scratched with a 1 mL tip and a medium containing TGF-β1, TGF-β1, and sample BCT (10 μM) or TGF-β1, and sample BCC (0.5 μM) was added to each well. After culturing for 72 hours, the degree of cell migration was confirmed under a microscope, and images were taken.

[4] = system: alveolar epithelial A549 cells; experiment: Cell penetration inhibition (Matrigel trans-well), EMT induced by TGF-β1; assay type: cell-based; conditions: TGF-β1-treated A549; BCT 10 μM, BCC 0.5 μM; 24 hours; FIG. 3
Experimental: As EMT progresses, the proliferation and movement of epithelial cells increases, cell penetration increases, and cell morphology changes, thereby confirming EMT inhibitory efficacy and evaluating the degree of expression of mechanism-related factors.
Trans-well inserts (Corning, USA) were coated with Matrigel® (Corning) at 2 mg/L. Dilute A549 cells to about 5×10^5/mL in 200 μl of serum-free media, and TGF-β1, TGF-β1 and sample BCT (10 μM) or TGF-β1 and sample BCC (0.5 μM) was added and dispensed into trans-well inserts. The cells were cultured for 24 hours by dispensing a medium containing 10% serum in the receive chambers. After the culture was completed, the cells remaining in the insert were removed, and the cells penetrating the receiving chamber were stained with crystal violet and photographed under a microscope.

[5] = system: EMT mechanism-related factors in A549 cells; experiment: Western blot of EMT mechanism-related factors; assay type: cell-based; conditions: BCT 10 μM, BCC 0.5 μM; for expression of E-cadherin: decreased by TGF-β1 treatment; for expression of E-cadherin / expression of Cyr61 / expression of Fibronectin / expression of Integrin β3 / expression of SMA2/3 / expression of Vimentin / expression of α-Sma: FIG. 4; for expression of Cyr61 / expression of Fibronectin / expression of Integrin β3 / expression of SMA2/3 / expression of Vimentin / expression of α-Sma / expression of pAKT / expression of pERK: increased by TGF-β1 treatment; for expression of pAKT / expression of pERK: FIG. 5
Experimental: 2×10^6 A549 cells were attached to a 100 mm culture vessel for 24 hours, treated with TGF-β1, TGF-β1 and sample BCT (10 μM) and/or TGF-β1 and sample BCC (0.5 μM)) and cultured. After collecting all of the cultured cells, the cell precipitate was dissolved in a cell lysate RIPA lysis buffer (LPS solution, Korea, Seoul), followed by centrifugation at 13,000 rpm for 20 minutes to obtain a supernatant. The total amount of protein was quantified using the BCA Protein assay kit (Thermo. Scientific, Wilmington, DE, USA) solution. After mixing the protein and 6× sample buffer (1 mL of glycerol, 0.5 mL of β- Mercaptoethanol, 3 mL of 10% SDS, 1.25 mL of 1 M Tris-HCl, 1-2 μg of bromophenol blue), electrophoresis was performed on SDS polyacrylamide gel. After transferring to Nitrocellulose Membrane (Millipore, Billerica, MA, USA) and blocking with 5% non-fat skim milk, protein expression levels of related factors were measured using various antibodies, and whether the protein amount was the same was confirmed using actin. Each of the primary antibodies was diluted and reacted at room temperature for 4 hours, washed 3 times with TBST, the secondary antibody was diluted at 1:5,000 and reacted at room temperature for 30 minutes. After washing with TBST, a band was obtained after light emission with ECL solution (LPS solution, Korea, Seoul). The results are shown in FIG. 4 for the Smad-dependent factor and FIG. 5 for the Smad-independent factor.

[6] = system: alveolar epithelial A549 cells; experiment: Cell morphological changes, EMT induced by TGF-β1; assay type: cell-based; conditions: changed by TGF-β1 treatment, BCT 10 μM, BCC 0.5 μM, 48 hours, FIG. 6
Experimental: A549 cells were seeded on a 60 mm plate at 1×10^5 /mL and cultured for 24 hours. Then, 5 mL of a medium containing TGF-β1, TGF-β1 and sample BCT (10 μM) and/or TGF-β1 and sample BCC (0.5 μM) was added to each well and incubated for another 48 hours. After culturing, the cells were checked under a microscope, and images were taken.

lung fibrosis = experiment: Histopathological examination in bleomycin pulmonary fibrosis animal model; assay type: in vivo, mice; conditions: BLM 3 mg/kg into airways, samples administered daily; for size of the fibrosis area according to the tissue scoring system (Ashcroft score): Masson's trichrome, graph at bottom of FIG. 8; for size of the increased fibrosis area (H&E staining): lung on day 29, FIG. 8
Experimental: The airways of the mice were incised, and bleomycin (3 mg/kg, BLM) was injected into the airways. After injection, the incision site was sutured with nylon thread, samples of BCT and/or BCC were administered daily 24 hours after bleomycin was injected. Mice were raised to 28 days from the start date of the experiment and sacrificed on day 29 to separate the broncho-alveolar lavage fluid (BALF) and lung tissue and used in further experiments. In order to evaluate lung fibrosis, animal models of each control group and experimental group were sacrificed, and the lungs were extracted from these animal models, fixed in 10% neutral buffered formalin (NBF), and then embedded with paraffin to produce tissue sections with a thickness of 2-4 um. After the sections were prepared, Hematoxylin-Eosin staining and Masson's trichrome staining were performed for comparison of histological findings and observed with an optical microscope. H&E staining was performed to evaluate inflammation and epithelial cell hypertrophy due to lung fibrosis, and Masson's trichrome staining was used to evaluate fibrosis using the following tissue scoring method (Scoring system, Ashcroft score). [table]

[7] = system: major markers of pulmonary fibrosis in lung tissue; experiment: Western blot of protein expression level using lung tissue, pulmonary fibrosis animal model; assay type: in vivo, mice; conditions: compared to BLM-induced group; FIG. 9
Experimental: (§3) The airways of the mice were incised, and bleomycin (3 mg/kg, BLM) was injected into the airways. After injection, the incision site was sutured with nylon thread, samples of BCT and/or BCC were administered daily 24 hours after bleomycin was injected. Mice were raised to 28 days from the start date of the experiment and sacrificed on day 29 to separate the broncho-alveolar lavage fluid (BALF) and lung tissue and used in further experiments.
Animal models of each control group and the experimental group raised for 28 days were sacrificed, and lung tissue samples and serum samples were obtained from these animal models, respectively, and stored in a deep freezer at −70° C. Western blotting was performed for α-Sma, TGF-β1, Fibronectin, and E-cadherin proteins known as major markers of pulmonary fibrosis.
Lung tissue was put into T-PER buffer (lysis buffer, Thermo. Scientific, Wilmington, DE, USA) as a standard of 500 μL per 50 mg of tissue, and the tissue was homogenized using a homogenizer. The homogenized tissue was centrifuged at 13,000 rpm, and the supernatant was used as a sample for Western blot. The concentration of the tissue homogenate was quantified using a BCA Protein assay kit (Thermo. Scientific, Wilmington, DE, USA) solution. After mixing the protein and 6× sample buffer (1 mL of glycerol, 0.5 mL of β-Mercaptoethanol, 3 mL of 10% SDS, 1.25 mL of 1 M Tris-HCl, 1-2 μg of bromophenol blue), electrophoresis was performed on SDS polyacrylamide gel. After transferring to Nitrocellulose Membrane (Millipore, Billerica, MA, USA) and blocking with 5% non-fat skim milk, protein expression levels of related factors were measured using various antibodies, and whether the protein amount was the same was confirmed using actin. Each of the primary antibodies was diluted and reacted at room temperature for 4 hours, washed 3 times with TBST, the secondary antibody was diluted at 1:5,000 and reacted at room temperature for 30 minutes. After washing with TBST, a band was obtained after light emission with ECL solution (LPS solution, Korea, Seoul).

cells in BALF = experiment: Change in cell number in bronchoalveolar lavage fluid (BALF), pulmonary fibrosis animal model; assay type: in vivo, mice; conditions: increased in BLM-administered group; FIG. 10
Experimental: as §3
Pulmonary fibrosis is characterized by an increase in the total number of cells and the percentage of neutrophils in the BALF fluid.
After collecting BALF from each experimental animal group, neutrophils and alveolar macrophages, including total cells, were measured. The method of measuring the total number of cells in BALF, the ratio of neutrophils and alveolar macrophages, etc., is as follows. BALF was mixed with trypan blue in a ratio of 1:1, and then the total number of cells was counted as ×104/BALF 1 mL using a hemocytometer (Fisher Scientific, PA, USA). The prepared BALF was spread on a slide glass and then stained with Diff Quik (manufactured by Sysmex Corporation, USA), the number of neutrophils and alveolar macrophages among a total of 200 cells was counted under a microscope, and the ratio was measured and recorded.

Oc1ccccc1O [BCC, 1,2-dihydroxybenzene]
cytotoxicity (cell viability) [1]: did not show any particular cytotoxicity
cytotoxicity (cell viability) [2]: did not show any particular cytotoxicity
cytotoxicity (cell viability) (muscle cells (C2C12)): did not show any particular cytotoxicity
cell migration [3]: decreased
number of cells penetrating into the receiving chamber [4]: decreased
expression of E-cadherin [5]: increased
expression of Cyr61 [5]: decreased
expression of Fibronectin [5]: decreased
expression of Integrin β3 [5]: decreased
expression of SMA2/3 [5]: decreased
expression of Vimentin [5]: decreased
expression of α-Sma [5]: decreased
expression of pAKT [5]: decreased
expression of pERK [5]: decreased
cell morphology [6]: recovered similarly to the control
size of the fibrosis area according to the tissue scoring system (Ashcroft score) (lung fibrosis): reduced
size of the increased fibrosis area (H&E staining) (lung fibrosis): reduced
E-cadherin expression in lung tissue [7]: increased
expression level of TGF-β1 in lung tissue [7]: decreased
expression level of fibronectin in lung tissue [7]: decreased
expression level of α-SMA in lung tissue [7]: decreased
number of lymphocytes in BALF (cells in BALF): significantly decreased
number of neutrophils in BALF (cells in BALF): significantly decreased
total number of cells in BALF (cells in BALF): significantly decreased

COc1ccc(-c2coc3cc(OC)c(OC)cc3c2=O)cc1 [BCT, 4′,6,7-trimethoxyisoflavone]
cytotoxicity (cell viability) [1]: did not show any particular cytotoxicity
cytotoxicity (cell viability) [2]: did not show any particular cytotoxicity
cytotoxicity (cell viability) (muscle cells (C2C12)): did not show any particular cytotoxicity
cell migration [3]: decreased
number of cells penetrating into the receiving chamber [4]: decreased
expression of E-cadherin [5]: increased
expression of Cyr61 [5]: decreased
expression of Fibronectin [5]: decreased
expression of Integrin β3 [5]: decreased
expression of SMA2/3 [5]: decreased
expression of Vimentin [5]: decreased
expression of α-Sma [5]: decreased
expression of pAKT [5]: decreased
expression of pERK [5]: decreased
cell morphology [6]: recovered similarly to the control
size of the fibrosis area according to the tissue scoring system (Ashcroft score) (lung fibrosis): reduced
size of the increased fibrosis area (H&E staining) (lung fibrosis): reduced
E-cadherin expression in lung tissue [7]: increased
expression level of TGF-β1 in lung tissue [7]: decreased
expression level of fibronectin in lung tissue [7]: decreased
expression level of α-SMA in lung tissue [7]: decreased
number of lymphocytes in BALF (cells in BALF): significantly decreased
number of neutrophils in BALF (cells in BALF): significantly decreased
total number of cells in BALF (cells in BALF): significantly decreased

Reference: patent US12263154B2, “Composition using 4′,6,7-trimethoxyisoflavone and catechol for managing pulmonary fibrosis” (A-CHEMBIO CO., LTD, priority 2020, dated 2025)
